A short description of data set [1]: Cellular toxicity in MT-4 cells (XTT staining). Conditions: human, 6 days incubation, read-out: TC50 (50% reduction in cell viability). The format is cell-based. As for the experimental part: (§1) The compounds were evaluated for inhibition of HIV-1IIIB infection and cellular toxicity in MT-4 cells.
(§2) The MT-4 cells and […] used in the HIV-1 inhibition assays were obtained from the AIDS Research and Reference Program (Rockville, MD) and propagated as recommended by the supplier.
(§3) Fifty microliters (50 μL) of MT-4 cells at a density of 1.0×10^4 cells/well in 10% complete RPMI-1640 (10% FBS supplemented with 1% L-glutamine and 1% Penicillin/Streptomycin) media were plated in a 96-well flat bottom plate. One-hundred microliters (100 μL) of each compound at 12 concentrations were added in triplicate followed by 50 μL of HIV-1IIIB at a pre-determined titer. The cultures were incubated for 6 days at 37° C./5% CO2. Following the incubation, the cells were stained with XTT for evaluation of compound efficacy and cellular toxicity, as described below.
(§4) Efficacy and toxicity values for the test materials were derived by measuring the reduction of the tetrazolium dye XTT (2,3-bis(2-methoxy-4-nitro-5-sulfophenyl)-5-[(phenylamino)carbonyl]-2H-tetrazolium hydroxide). XTT in metabolically active cells is metabolized by the mitochondrial enzyme NADPH oxidase to a soluble formazan product. XTT solution was prepared daily as a stock of 1 mg/mL in RPMI-1640 without additives. Phenazine methosulfate (PMS) solution was prepared at 0.15 mg/mL in DPBS and stored in the dark at −20° C. XTT/PMS stock was prepared immediately before use by adding 40 μL of PMS per mL of XTT solution. Fifty μL (50 μL) of XTT/PMS was added to each well of the plate and the plate incubated for 4 hours at 37° C. The 4-hour incubation has been empirically determined to be within the linear response range for XTT dye reduction with the indicated numbers of cells for each assay. The plates were sealed and inverted several times to mix the soluble formazan product and the plate was read at 450 nm (650 nm reference wavelength) with a Molecular Devices SpectraMax Plus 384 96 well plate format spectrophotometer.
(§5) Microsoft Excel 2010 in combination with XLfit4 was used to analyze and graph the data. EC50 (50% inhibition of virus replication), TC50 (50% reduction in cell viability) and a therapeutic index (TC50/EC50) are provided. Raw data for both antiviral activity and toxicity with a graphic representation of the data are provided in a printout summarizing the compound activity.

Data set [2] concerns HIV-1IIIB. Put plainly: Inhibition of HIV-1IIIB infection in MT-4 cells (XTT staining). The format is cell-based. Conditions: HIV-1IIIB in MT-4 cells; for EC50: 6 days incubation, XTT, read-out: EC50 (50% inhibition of virus replication). How it is done:
as §1, §2, §3, §4, §5

Setting [3] is: Human immunodeficiency virus 1, MT4, 144 h.

Where two headings read alike, the source gives them in different places.

As to `Cn1nc(NS(C)(=O)=O)c2c(Cl)ccc(-n3c([C@H](Cc4cc(F)cc(F)c4)NC(=O)Cn4nc(C(F)(F)F)c5c4C(F)(F)[C@@H]4C[C@H]54)nc4ncsc4c3=O)c21` (atropisomer, axis not shown) [Compound 35], in data set [1], the CC50 at 6 days was greater than 100 nM. The half-maximal effective concentration (EC50) in data set [2] was greater than 100 nM.
Consider `Cn1nc(NS(C)(=O)=O)c2c(Cl)ccc(-n3c([C@H](Cc4cc(F)cc(F)c4)NC(=O)Cn4nc(C(F)(F)F)c5c4C(F)(F)[C@@H]4C[C@H]54)nc4nc(NCCC(F)(F)F)sc4c3=O)c21` [Compound 49], for which the CC50 at 6 days in data set [1] is greater than 100 nM. In addition, the “Therapeutic Index (TC50/EC50)” value in data set [2] is on record as greater than 458.7. For the same molecule, the 50% effective concentration (EC50) in data set [2] (setting [3]) turned out to be 0.218 nM.
As for `CN(C)c1nc2nc([C@H](Cc3cc(F)cc(F)c3)NC(=O)Cn3nc(C(F)(F)F)c4c3C(F)(F)[C@@H]3C[C@H]43)n(-c3ccc(Cl)c4c(NS(C)(=O)=O)nn(C)c34)c(=O)c2s1` (atropisomer, axis not shown) [Compound 48], in data set [1], the CC50 at 6 days is greater than 100 nM. In addition, the “Therapeutic Index (TC50/EC50)” value in data set [2] was greater than 432.9. Also, in data set [2] (setting [3]), the concentration for a half-maximal effect (EC50) amounted to 0.231 nM.
In the case of `Cn1nc(NS(C)(=O)=O)c2c(Cl)ccc(-n3c([C@H](Cc4cc(F)cc(F)c4)NC(=O)Cn4nc(C(F)(F)F)c5c4C(F)(F)[C@@H]4C[C@H]54)nc4sc(CC(F)(F)F)cc4c3=O)c21` [Compound 43], in data set [1], the CC50 at 6 days was greater than 100 nM. Besides, the “Therapeutic Index (TC50/EC50)” value in data set [2] is greater than 31.7. In addition, the EC50 in data set [2] (setting [3]) amounted to 3.15 nM.
On the same counts, the results for `Cn1nc(NS(C)(=O)=O)c2c(Cl)ccc(-n3c([C@H](Cc4cc(F)cc(F)c4)NC(=O)Cn4nc(C(F)(F)F)c5c4C(F)(F)[C@@H]4C[C@H]54)nc4nc(N5CC6(COC6)C5)sc4c3=O)c21` (atropisomer, axis not shown) [Compound 41] are greater than 100 nM, greater than 193.4 and 0.517 nM.
As to `COCCNc1nc2nc([C@H](Cc3cc(F)cc(F)c3)NC(=O)Cn3nc(C(F)(F)F)c4c3C(F)(F)[C@@H]3C[C@H]43)n(-c3ccc(Cl)c4c(NS(C)(=O)=O)nn(C)c34)c(=O)c2s1` [Compound 46], in data set [1], the CC50 at 6 days was greater than 100 nM. The “Therapeutic Index (TC50/EC50)” value in data set [2] was greater than 510.2. The EC50 in data set [2] (setting [3]) was determined as 0.196 nM.
As for `Cn1nc(NS(C)(=O)=O)c2c(Cl)ccc(-n3c([C@H](Cc4cc(F)cc(F)c4)NC(=O)Cn4nc(C(F)(F)F)c5c4C(F)(F)C4CC54)nc4nc(S(C)(=O)=O)sc4c3=O)c21` (some centres unmarked) [Compound 29], the CC50 at 6 days in data set [1] was greater than 100 nM. Also, in data set [2], the “Therapeutic Index (TC50/EC50)” value was greater than 2.9 and the concentration for a half-maximal effect (EC50) was determined as 34.9 nM.
With `Cc1nsc2nc([C@H](Cc3cc(F)cc(F)c3)NC(=O)Cn3nc(C(F)(F)F)c4c3C(F)(F)[C@@H]3C[C@H]43)n(-c3ccc(Cl)c4c(NS(C)(=O)=O)nn(C)c34)c(=O)c12` (atropisomer, axis not shown) [Compound 44], in data set [1], the CC50 at 6 days is greater than 100 nM. In data set [2], the “Therapeutic Index (TC50/EC50)” value is greater than 2.9 and the 50% effective concentration (EC50) is 34.1 nM.
In the case of `CN(CCC(F)(F)F)c1nc2nc([C@H](Cc3cc(F)cc(F)c3)NC(=O)Cn3nc(C(F)(F)F)c4c3C(F)(F)[C@@H]3C[C@H]43)n(-c3ccc(Cl)c4c(NS(C)(=O)=O)nn(C)c34)c(=O)c2s1` [Compound 50], in data set [1], the CC50 at 6 days was greater than 100 nM. The “Therapeutic Index (TC50/EC50)” value in data set [2] is greater than 1136.4. Also, in data set [2] (setting [3]), the EC50 was 0.088 nM.
In the case of `Cn1nc(NS(C)(=O)=O)c2c(Cl)ccc(-n3c([C@H](Cc4cc(F)cc(F)c4)NC(=O)Cn4nc(C(F)(F)F)c5c4C(F)(F)[C@@H]4C[C@H]54)nc4nc(N5CCOC(C)(C)C5)sc4c3=O)c21` (atropisomer, axis not shown) [Compound 40], the CC50 at 6 days in data set [1] was greater than 100 nM. Further, the “Therapeutic Index (TC50/EC50)” value in data set [2] was greater than 492.6. The EC50 in data set [2] (setting [3]) worked out at 0.203 nM.
As for `CC1(C)CN(c2nc3nc([C@H](Cc4cc(F)cc(F)c4)NC(=O)Cn4nc(C(F)(F)F)c5c4C(F)(F)[C@@H]4C[C@H]54)n(-c4ccc(Cl)c5c(NS(C)(=O)=O)nn(CC(F)(F)F)c45)c(=O)c3s2)CCO1` (racemic) [Compound 52], in data set [1], the CC50 at 6 days is greater than 100 nM. In addition, in data set [2], the “Therapeutic Index (TC50/EC50)” value is on record as greater than 653.6. Moreover, the EC50 in data set [2] (setting [3]) came to 0.153 nM.
With `CS(=O)(=O)Nc1nn(CC(F)(F)F)c2c(-n3c([C@H](Cc4cc(F)cc(F)c4)NC(=O)Cn4nc(C(F)(F)F)c5c4C(F)(F)[C@@H]4C[C@H]54)nc4ncsc4c3=O)ccc(Cl)c12` [Compound 3], in data set [1], the CC50 at 6 days is greater than 100 nM. Moreover, in data set [2], the “Therapeutic Index (TC50/EC50)” value is recorded as greater than 625.0. Moreover, the EC50 in data set [2] (setting [3]) is 0.16 nM.
`Cn1nc(NS(C)(=O)=O)c2c(Cl)ccc(-n3c([C@H](Cc4cc(F)cc(F)c4)NC(=O)Cn4nc(C(F)(F)F)c5c4C(F)(F)[C@@H]4C[C@H]54)nc4nc(N5CCOCC5)sc4c3=O)c21` [Compound 51]: in data set [1], the CC50 at 6 days was greater than 100 nM. Further, the “Therapeutic Index (TC50/EC50)” value in data set [2] is reported as greater than 518.1. Moreover, the EC50 in data set [2] (setting [3]) is 0.193 nM.
`Cn1nc(NS(C)(=O)=O)c2c(Cl)ccc(-n3c([C@H](Cc4cc(F)cc(F)c4)NC(=O)Cn4nc(C(F)(F)F)c5c4C(F)(F)[C@@H]4C[C@H]54)nc4cc(N5CCCC5)sc4c3=O)c21` [Compound 39]: in data set [1], the CC50 at 6 days is greater than 100 nM. For the same molecule, the “Therapeutic Index (TC50/EC50)” value in data set [2] is greater than 5.4. Moreover, the EC50 in data set [2] (setting [3]) was determined as 18.6 nM.
For `Cn1nc(NS(C)(=O)=O)c2c(Cl)ccc(-n3c([C@H](Cc4cc(F)cc(F)c4)NC(=O)Cn4nc(C(F)(F)F)c5c4C(F)(F)[C@@H]4C[C@H]54)nc4nc(NCCO)sc4c3=O)c21` [Compound 47], in that order: greater than 100 nM, greater than 83.3 and 1.2 nM.
As to `Cn1nc(NS(C)(=O)=O)c2c(Cl)ccc(-n3c([C@H](Cc4cc(F)cc(F)c4)NC(=O)Cn4nc(C(F)(F)F)c5c4C(F)(F)[C@@H]4C[C@H]54)nc4nc(OCCC(F)(F)F)sc4c3=O)c21` (atropisomer, axis not shown) [Compound 53], the CC50 at 6 days in data set [1] was greater than 100 nM. The “Therapeutic Index (TC50/EC50)” value in data set [2] was greater than 980.4. The EC50 in data set [2] (setting [3]) turned out to be 0.102 nM.
With `Cn1nc(NS(C)(=O)=O)c2c(Cl)ccc(-n3c([C@H](Cc4cc(F)cc(F)c4)NC(=O)Cn4nc(C(F)(F)F)c5c4C(F)(F)[C@@H]4C[C@H]54)nc4onc(-c5ccccc5)c4c3=O)c21` (atropisomer, axis not shown) [Compound 37], in data set [1], the CC50 at 6 days was greater than 100 nM. Also, in data set [2], the “Therapeutic Index (TC50/EC50)” value is recorded as greater than 9.0 and the EC50 is 11.1 nM.
`Cn1nc(NS(C)(=O)=O)c2c(Cl)ccc(-n3c([C@H](Cc4cc(F)cc(F)c4)NC(=O)Cn4nc(C(F)(F)F)c5c4C(F)(F)[C@@H]4C[C@H]54)nc4c(c3=O)CCCN4)c21` (atropisomer, axis not shown) [Compound 34]: in data set [1], the CC50 at 6 days was greater than 100 nM. Besides, the “Therapeutic Index (TC50/EC50)” value in data set [2] is greater than 42.6. The EC50 in data set [2] (setting [3]) amounted to 2.35 nM.
As for `CS(=O)(=O)Nc1nn(CC(F)(F)F)c2c(-n3c([C@H](Cc4cc(F)cc(F)c4)NC(=O)Cn4nc(C(F)(F)F)c5c4C(F)(F)[C@@H]4C[C@H]54)nc4sccc4c3=O)ccc(Cl)c12` [Compound 1], the CC50 at 6 days in data set [1] is greater than 100 nM. In addition, in data set [2], the “Therapeutic Index (TC50/EC50)” value is greater than 312.5. Besides, the concentration for a half-maximal effect (EC50) in data set [2] (setting [3]) amounted to 0.32 nM.

For orientation: EC50 means the concentration giving half of the maximal effect.
